Source: paper PMC8933034, “6-Amino-2,4,5-trimethylpyridin-3-ol and 2-amino-4,6-dimethylpyrimidin-5-ol derivatives as selective fibroblast growth factor receptor 4 inhibitors: design, synthesis, molecular docking, and anti-hepatocellular carcinoma efficacy evaluation” (Journal of Enzyme Inhibition and Medicinal Chemistry, 2022)
Values joined by “and” are separate entries in the source; they are usually repeats but may differ in a detail not shown here. Identical values can stand only once. Blank lines part the entries; values can stand above or below the molecule they belong to.

Experiments:
[1] = Cytotoxicity assay (MTT), H6c7; type: cell-based; conditions: human, H6c7 normal pancreatic duct epithelial cells, 48 h treatment, mean ± SEM of three independent experiments, read-out: IC50 on cell viability (cytotoxicity), H6c7
Description: (§1) Human HCC cell lines, Hep3B and Huh7 were obtained from American Type Culture Collection (ATCC, Manassas, VA, USA). An H6c7 human normal pancreatic duct epithelial cell line was purchased from Kerafast (Boston, MA, USA). Hep3B and Huh7 cells were cultured in Dulbecco′s Modified Eagle′s Medium (DMEM) (Hyclone, Logan, UT, USA). The media were supplemented with 10% foetal bovine serum (FBS) (Gibco/ThermoFisher Scientific) and 1% penicillin/streptomycin (Gibco/ThermoFisher Scientific). H6c7 cells were maintained in a keratinocyte serum-free medium supplemented with a recombinant […] growth factor (rEGF) and bovine pituitary extract (Gibco/ThermoFisher Scientific). All the cells were incubated at 37 °C under a 5% CO2 atmosphere.
The cytotoxicity of the compounds was assessed by measuring the cell viability decrease using the MTT staining method. Briefly, H6c7 cells were seeded in a 96-well plate (Falcon, USA) at a density of 4 × 10^4 cells per well in keratinocyte serum-free medium. After 24 h, Cells were incubated with different concentrations (0.1, 1, 3, 10, 30, and 100) µM of each compound for 48 h, and the cell viability was measured using MTT assay. Optical density was measured at 540 nm using a microplate reader (BMG LABTECH).

[2] = tested on: Hep3B-xenografted CAM tumour model; assay: CAM (chick chorioallantoic membrane) tumour model implanted with Hep3B cells; type: in vivo
Description: Fertile chicken eggs were purchased from Byeolbichon Farm (Gyeongbuk, South Korea) and incubated at 37 °C and under 55% relative humidity. On the 9th day of egg incubation (post-fertilization), false air sac was generated on the relatively flat side of eggs by a negative pressure technique. A small window (1 cm^2) was created on the false air sac surface of the eggs by separating the shell and membrane beneath (technique) using a grinding wheel (Dremel, Racine, WI, USA). Next, Hep3B cells were loaded at a density of 1.5 × 10^6 cells/CAM with or without compound. After four days of drug treatment, the tumour weight, number of vessel branch points within the tumour region were analysed.

Hep3B cells = assay: Cell proliferation assay (MTT), Hep3B; type: cell-based, human; conditions: for IC50: Homo sapiens, Hep3B, 48 h treatment, mean ± SEM of three independent experiments
Description: as §1
(§2) Cells were seeded at a density of 5000 cells/well in a 96-well plate. After overnight incubation, the cells were serum-starved using 1% FBS for 24 h. The next day, the cells were pre-treated with the different concentrations (0.1, 1, 3, 10, 30, 100 µM) of drugs for 1 h prior to the treatment with serum (10% FBS). After 48 h of incubation, 3–(4,5-dimethylthiazol-2-yl)-2,5-diphenyltetrazolium bromide (MTT) dye solution was added and incubated for 4 h. Next, DMSO was added, and after 30 min, the colour intensities were measured using a microplate reader (Versamax, Molecular Devices, Inc., USA) at 490 nm.

Huh7 cells = assay: Cell proliferation assay (MTT), Huh7; type: cell-based, human; conditions: for IC50: Homo sapiens, Huh-7, 48 h treatment, mean ± SEM of three independent experiments; for difference of anti-proliferative activity between Hep3B and Huh7: Huh7 versus Hep3B, 48 h
Description: as §1, §2

human FGFR4 kinase = molecular target: T1, human FGFR4 kinase (Homo sapiens, UniProt P22455); assay: FGFR4 kinase assay (Kinase HotSpot, Reaction Biology Corp.); type: biochemical; conditions: for inhibition at 1 µM: fixed concentration 1 μM, mean of two independent experiments; for inhibition at 0.01 µM: 0.01 μM concentration, two independent experiments
T1 construct: purchased Reaction Biology Corporation (Malvern, PA, USA), contract assay service
Description: A FGFR4 kinase assay was performed at the Reaction Biology Corporation (Malvern, PA, USA) using a Kinase HotSpotSM assay platform (www.reactionbiology.com, last accessed at 19/10/2020). Briefly, human FGFR4 kinase (5–10 mU), peptide substrate, and poly[Glu:Tyr] (4:1) 0.2 mg/ml were prepared in a reaction buffer with a final volume of 25 µL. The compounds were delivered into the reaction, followed ∼20 min. later by the addition of a mixture of ATP and [γ-^33P-ATP] (specific activity approx. 500 cpm/pmol, concentration as required) to a final concentration of 10 µM. After incubation for 40 min. at 25 °C, the reaction was stopped by the addition of a 3% phosphoric acid solution. Then, the reaction was spotted onto a P30 filtermat, and unbound phosphate was removed by washing 3 times for 5 min in 75 mM phosphoric acid and once in methanol prior to drying and scintillation counting. […] IC50 values and curve fits were obtained using GraphPad Prism 5 software.

FGFR2 = molecular target: T2, FGFR2 (Homo sapiens, UniProt P21802); assay: FGFR2 ADP-glow kinase assay; type: biochemical
T2 construct: purchased Promega, WI, USA
Description: (§3) FGFR1 ∼ 3 kinase assays were performed using the adenosine diphosphate (ADP)-glow kinase assay kit of FGFR1, FGFR2, and FGFR3 kinase enzyme systems (Promega, WI, USA) in accordance with the manufacturer’s instructions. […] The reaction was carried out at 25 °C for 1 h in a total volume of 25 µL. Subsequently, 25 µL of ADP-Glow reagent was added to the mixture, and then incubated for 40 min at 25 °C. After the addition of 50 µL of ADP detection reagents for 30 min at 25 °C, luminescence was measured using a Fluostar Omega microplate reader (BMG LABTECH GmbH, Ortenberg, Germany).

FGFR1 = molecular target: T3, FGFR1 (Homo sapiens, UniProt P11362); assay: FGFR1 ADP-glow kinase assay; type: biochemical
T3 construct: purchased Promega, WI, USA
Description: as §3

FGFR3 = molecular target: T4, FGFR3 (Homo sapiens, UniProt P22607); assay: FGFR3 ADP-glow kinase assay; type: biochemical
T4 construct: purchased Promega, WI, USA
Description: as §3

T2 sequence (P21802 22-821): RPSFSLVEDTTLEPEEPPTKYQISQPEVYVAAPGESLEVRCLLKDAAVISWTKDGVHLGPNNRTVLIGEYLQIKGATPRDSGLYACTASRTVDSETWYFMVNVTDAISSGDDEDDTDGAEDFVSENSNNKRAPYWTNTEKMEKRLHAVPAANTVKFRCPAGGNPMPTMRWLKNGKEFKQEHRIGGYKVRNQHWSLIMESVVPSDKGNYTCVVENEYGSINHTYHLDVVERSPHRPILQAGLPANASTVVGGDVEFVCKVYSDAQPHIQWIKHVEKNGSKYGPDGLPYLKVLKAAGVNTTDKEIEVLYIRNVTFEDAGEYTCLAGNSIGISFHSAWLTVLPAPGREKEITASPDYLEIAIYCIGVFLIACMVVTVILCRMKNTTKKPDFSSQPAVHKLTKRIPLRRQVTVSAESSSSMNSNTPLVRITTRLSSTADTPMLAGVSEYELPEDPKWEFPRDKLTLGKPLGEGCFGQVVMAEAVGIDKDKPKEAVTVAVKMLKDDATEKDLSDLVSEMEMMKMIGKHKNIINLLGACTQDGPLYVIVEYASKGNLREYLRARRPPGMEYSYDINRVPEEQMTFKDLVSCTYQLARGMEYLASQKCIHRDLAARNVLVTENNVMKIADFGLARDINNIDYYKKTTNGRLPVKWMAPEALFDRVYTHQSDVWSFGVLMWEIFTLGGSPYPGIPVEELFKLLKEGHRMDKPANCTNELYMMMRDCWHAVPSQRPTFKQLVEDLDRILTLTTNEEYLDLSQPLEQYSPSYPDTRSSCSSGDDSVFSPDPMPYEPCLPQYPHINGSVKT
T1 sequence (P22455 22-802): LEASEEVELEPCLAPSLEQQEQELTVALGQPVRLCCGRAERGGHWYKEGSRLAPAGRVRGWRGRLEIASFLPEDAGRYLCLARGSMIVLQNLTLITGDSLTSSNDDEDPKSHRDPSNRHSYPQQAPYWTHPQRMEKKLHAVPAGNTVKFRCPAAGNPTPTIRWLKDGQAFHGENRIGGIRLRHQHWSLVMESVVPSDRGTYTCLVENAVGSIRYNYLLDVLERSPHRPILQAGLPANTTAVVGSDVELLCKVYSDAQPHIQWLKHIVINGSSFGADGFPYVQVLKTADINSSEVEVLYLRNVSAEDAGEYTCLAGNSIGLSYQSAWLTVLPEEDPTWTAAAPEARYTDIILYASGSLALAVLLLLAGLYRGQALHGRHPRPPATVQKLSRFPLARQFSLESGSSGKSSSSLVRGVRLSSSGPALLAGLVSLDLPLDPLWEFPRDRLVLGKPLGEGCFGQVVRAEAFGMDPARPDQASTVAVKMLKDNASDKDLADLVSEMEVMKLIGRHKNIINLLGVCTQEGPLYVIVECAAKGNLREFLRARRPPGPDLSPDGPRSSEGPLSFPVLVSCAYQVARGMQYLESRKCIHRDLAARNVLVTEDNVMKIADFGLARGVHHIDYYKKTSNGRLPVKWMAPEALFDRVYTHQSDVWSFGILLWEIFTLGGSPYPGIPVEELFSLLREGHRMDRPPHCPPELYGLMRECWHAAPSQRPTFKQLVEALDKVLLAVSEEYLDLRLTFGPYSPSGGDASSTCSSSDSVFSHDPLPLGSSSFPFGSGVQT
T3 sequence (P11362 22-822): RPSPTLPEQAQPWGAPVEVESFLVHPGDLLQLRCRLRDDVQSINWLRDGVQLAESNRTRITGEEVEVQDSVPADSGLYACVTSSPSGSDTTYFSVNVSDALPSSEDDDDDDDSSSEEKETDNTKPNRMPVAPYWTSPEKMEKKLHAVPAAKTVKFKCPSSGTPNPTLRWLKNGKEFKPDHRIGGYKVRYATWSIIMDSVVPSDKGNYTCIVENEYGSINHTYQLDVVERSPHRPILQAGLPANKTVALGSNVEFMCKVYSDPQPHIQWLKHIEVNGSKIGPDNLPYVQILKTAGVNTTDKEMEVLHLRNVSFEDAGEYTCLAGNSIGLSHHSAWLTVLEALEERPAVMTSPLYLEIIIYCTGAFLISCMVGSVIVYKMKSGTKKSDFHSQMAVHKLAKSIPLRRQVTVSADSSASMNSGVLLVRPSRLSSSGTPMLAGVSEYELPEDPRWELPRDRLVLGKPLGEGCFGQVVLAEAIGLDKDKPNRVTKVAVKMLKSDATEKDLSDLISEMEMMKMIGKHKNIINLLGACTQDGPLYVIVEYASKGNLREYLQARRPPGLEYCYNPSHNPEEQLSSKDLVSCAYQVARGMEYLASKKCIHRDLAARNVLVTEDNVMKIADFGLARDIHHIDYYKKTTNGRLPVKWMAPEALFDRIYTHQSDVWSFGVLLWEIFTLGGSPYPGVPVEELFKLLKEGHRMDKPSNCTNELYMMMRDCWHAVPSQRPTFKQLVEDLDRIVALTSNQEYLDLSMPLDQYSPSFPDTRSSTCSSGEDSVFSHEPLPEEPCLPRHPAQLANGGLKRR
T4 sequence (P22607 23-806): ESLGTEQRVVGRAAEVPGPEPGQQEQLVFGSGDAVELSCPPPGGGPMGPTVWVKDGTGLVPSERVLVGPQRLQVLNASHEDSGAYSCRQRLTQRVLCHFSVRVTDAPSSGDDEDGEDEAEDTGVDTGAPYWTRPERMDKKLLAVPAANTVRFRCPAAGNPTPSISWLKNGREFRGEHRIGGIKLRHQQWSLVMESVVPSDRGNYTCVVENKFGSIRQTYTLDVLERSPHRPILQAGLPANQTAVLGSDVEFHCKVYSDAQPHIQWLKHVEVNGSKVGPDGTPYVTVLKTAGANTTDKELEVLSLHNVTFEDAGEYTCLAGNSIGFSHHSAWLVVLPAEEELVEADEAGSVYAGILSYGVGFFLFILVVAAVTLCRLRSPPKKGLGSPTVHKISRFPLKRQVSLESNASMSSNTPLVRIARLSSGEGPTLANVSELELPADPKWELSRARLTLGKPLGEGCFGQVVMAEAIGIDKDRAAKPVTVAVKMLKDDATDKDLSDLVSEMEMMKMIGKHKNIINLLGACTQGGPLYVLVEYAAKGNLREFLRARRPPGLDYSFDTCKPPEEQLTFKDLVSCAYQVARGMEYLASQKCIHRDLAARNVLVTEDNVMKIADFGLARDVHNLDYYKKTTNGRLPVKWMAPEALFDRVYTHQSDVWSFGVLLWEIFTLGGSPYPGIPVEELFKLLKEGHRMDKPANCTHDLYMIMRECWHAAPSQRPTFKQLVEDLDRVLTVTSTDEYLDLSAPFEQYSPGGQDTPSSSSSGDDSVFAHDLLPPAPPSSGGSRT

IC50 (Hep3B cells): 0.9 ± 0.1 µM
IC50 (Huh7 cells): 7.1 ± 5 µM
SMILES: C=CC(=O)Nc1cccc(C)c1Nc1ncc2cc(-c3c(Cl)c(OC)cc(OC)c3Cl)ccc2n1 [Compound 1, reference compound]
IC50 at 48 h [1]: 13.4 µM
tumour growth ([2]; four days after Hep3B xenograft on CAM): dose-dependently inhibited
tumour-induced angiogenesis ([2]; number of new vessel branches on CAM, four days): significantly blocked
difference of anti-proliferative activity between Hep3B and Huh7 (Huh7 cells): 7 fold

inhibition at 1 µM (human FGFR4 kinase): 10.3%
SMILES: C=CC(=O)Nc1ccc(N2CCN(CC)CC2)cc1Nc1nc(C)c(OCc2c(F)c(OC)cc(OC)c2F)c(C)n1 [Compound 6AA]

IC50 (human FGFR4 kinase; 7 different concentrations, three independent experiments): 0.19 µM
inhibition at 1 µM (human FGFR4 kinase): 62.8%
Ratio against FGFR4 (FGFR2) (FGFR2; ratio of FGFR2 to FGFR4 inhibitory activity): 6.0
IC50 (FGFR2; three independent experiments): 1.15 µM
Ratio against FGFR4 (FGFR1) (FGFR1; ratio of FGFR1 to FGFR4 inhibitory activity): 8.2
IC50 (FGFR1; three independent experiments): 1.56 µM and 1.57 µM
fold less potent than compound 1, Hep3B IC50 (Hep3B cells; 48 h): 28 fold
IC50 (Hep3B cells): 25.2 µM
Ratio against FGFR4 (FGFR3) (FGFR3; ratio of FGFR3 to FGFR4 inhibitory activity): 1.5
IC50 (FGFR3; three independent experiments): 0.277 µM
IC50 (Huh7 cells): 21.3 ± 6 µM
SMILES: C=CC(=O)Nc1cn(C)nc1Nc1nc(C)c(OCc2c(F)c(OC)cc(OC)c2F)c(C)c1C [Compound 6A]
IC50 at 48 h [1]: > 100 µM
difference of anti-proliferative activity between Hep3B and Huh7 (Huh7 cells): did not show a significant difference

inhibition at 1 µM (human FGFR4 kinase): 5.4%
SMILES: C=CC(=O)Nc1ccc(N2CCN(CC)CC2)cc1Nc1nc(C)c(OCc2c(Cl)c(OC)cc(OC)c2Cl)c(C)n1 [Compound 6BB]

inhibition at 1 µM (human FGFR4 kinase): 16.9%
SMILES: C=CC(=O)Nc1cn(C)nc1Nc1nc(C)c(OCc2c(Cl)c(OC)cc(OC)c2Cl)c(C)c1C [Compound 6B]

inhibition at 1 µM (human FGFR4 kinase): 22%
SMILES: C=CC(=O)Nc1cn(C)nc1Nc1nc(C)c(OCc2c(F)c(OC)cc(OC)c2F)c(C)n1 [Compound 6C]

inhibition at 1 µM (human FGFR4 kinase): 8%
SMILES: C=CC(=O)Nc1cn(C)nc1Nc1nc(C)c(OCc2c(Cl)c(OC)cc(OC)c2Cl)c(C)n1 [Compound 6D]

inhibition at 0.01 µM (human FGFR4 kinase): 5%
inhibition at 1 µM (human FGFR4 kinase): 7.2%
SMILES: C=CC(=O)Nc1cccc(C)c1Nc1nc(C)c(OCc2c(F)c(OC)cc(OC)c2F)c(C)c1C [Compound 6E]

inhibition at 1 µM (human FGFR4 kinase): 5.4%
SMILES: C=CC(=O)Nc1cccc(C)c1Nc1nc(C)c(OCc2c(Cl)c(OC)cc(OC)c2Cl)c(C)c1C [Compound 6F]

inhibition at 0.01 µM (human FGFR4 kinase): 3.3%
inhibition at 1 µM (human FGFR4 kinase): 24.8%
SMILES: C=CC(=O)Nc1cccc(C)c1Nc1nc(C)c(OCc2c(F)c(OC)cc(OC)c2F)c(C)n1 [Compound 6G]

inhibition at 1 µM (human FGFR4 kinase): 14%
SMILES: C=CC(=O)Nc1cccc(C)c1Nc1nc(C)c(OCc2c(Cl)c(OC)cc(OC)c2Cl)c(C)n1 [Compound 6H]

inhibition at 1 µM (human FGFR4 kinase): 9.7%
SMILES: C=CC(=O)Nc1ccc(Nc2nc(C)c(OCc3c(F)c(OC)cc(OC)c3F)c(C)c2C)c(C)c1 [Compound 6I]

inhibition at 1 µM (human FGFR4 kinase): 5.9%
SMILES: C=CC(=O)Nc1ccc(Nc2nc(C)c(OCc3c(Cl)c(OC)cc(OC)c3Cl)c(C)c2C)c(C)c1 [Compound 6J]

inhibition at 1 µM (human FGFR4 kinase): 4.9%
SMILES: C=CC(=O)Nc1ccc(Nc2nc(C)c(OCc3c(F)c(OC)cc(OC)c3F)c(C)n2)c(C)c1 [Compound 6K]

inhibition at 1 µM (human FGFR4 kinase): 3.6%
SMILES: C=CC(=O)Nc1ccc(Nc2nc(C)c(OCc3c(Cl)c(OC)cc(OC)c3Cl)c(C)n2)c(C)c1 [Compound 6L]
